# Measurements published in PMC8119899, “A Single Mutation in the Outer Lipid-Facing Helix of a Pentameric Ligand-Gated Ion Channel Affects Channel Function Through a Radially-Propagating Mechanism” (Frontiers in Molecular Biosciences, 2021).
# Positions count from the first letter of the chain named.
# Experiments:
# Format in all cases: cell-based
# 5-HT3A receptor D238A = molecular target: T1, 5-HT3A receptor D238A (Mus musculus, UniProt P23979, D265A); experiment: FlexStation membrane potential dye, 5-HT response, D238A receptor in HEK293 cells; design: expressed in transfected cells; host or cells: HEK293; key to pEC50: Mutants that did not respond in the functional assay are marked as non functional (NF)
# T1 sequence (P23979 24-489 D265A): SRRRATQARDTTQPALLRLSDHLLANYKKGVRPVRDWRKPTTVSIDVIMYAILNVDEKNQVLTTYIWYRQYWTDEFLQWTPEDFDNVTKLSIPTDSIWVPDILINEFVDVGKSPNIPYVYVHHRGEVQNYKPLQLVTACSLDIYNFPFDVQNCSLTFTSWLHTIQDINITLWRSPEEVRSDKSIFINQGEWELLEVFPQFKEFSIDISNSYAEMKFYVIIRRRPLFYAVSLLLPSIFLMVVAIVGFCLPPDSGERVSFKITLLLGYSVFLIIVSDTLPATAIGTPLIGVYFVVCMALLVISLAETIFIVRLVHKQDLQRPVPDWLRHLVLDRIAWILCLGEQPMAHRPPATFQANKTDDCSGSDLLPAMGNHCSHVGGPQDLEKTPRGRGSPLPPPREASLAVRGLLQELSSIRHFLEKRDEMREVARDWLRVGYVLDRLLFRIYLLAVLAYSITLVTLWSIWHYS
# Method: (§1) The mouse 5-HT3A cDNA (Q6J1J7) in pcDNA3.1 (for HEK cell transfection) or pGEMHE (for RNA production) was modified by QuikChange site-directed mutagenesis (Agilent Technologies) to create point mutants (verified by sequencing).
# Human embryonic kidney (HEK) 293 cells were maintained at 37 °C at 5% CO2 in a humidified atmosphere, in Dulbecco's Modified Eagle's Medium/Nutrient Mix F12 (1:1) (Invitrogen, Paisley, UK) with GlutaMAX^TM and 10% fetal bovine serum (GE Healthcare) (DMEM/FBS) and passaged when confluent. Five micrograms of WT or mutant 5-HT3A DNA and 30 μl polyethyleneamine (Polysciences) incubated for 10 min in 1 mL DMEM was added to 60% confluent HEK293 cells for transfection, and cells grown for 2 days before assays.
# (§2) As described previously (Price and Lummis, [2005]) cells were incubated for 45 min with fluorescent membrane potential-sensitive dye (Membrane Potential Blue kit, Molecular Devices) diluted in Flex buffer (10 mM HEPES, 115 mM NaCl, 1 mM KCl, 1 mM CaCl2, 1 mM MgCl2, and 10 mM glucose, pH 7.4), and subsequently assayed at room temperature for 180 s, with readings every 2 s. […] (log of the concentration of ligand), a is the minimum response, b is the maximum response, and nH is the Hill slope.
# 5-HT3A receptor K255A = molecular target: T2, 5-HT3A receptor K255A (Mus musculus, UniProt P23979, K282A); experiment: FlexStation membrane potential dye, 5-HT response, K255A receptor in HEK293 cells; design: expressed in transfected cells; host or cells: HEK293; settings: mean and SEM, n ≥ 3
# T2 sequence (P23979 24-489 K282A): T1 sequence (P23979 24-489 D265A) with A242D, K259A
# Method: as §1
# Human embryonic kidney (HEK) 293 cells were maintained at 37 °C at 5% CO2 in a humidified atmosphere, in Dulbecco's Modified Eagle's Medium/Nutrient Mix F12 (1:1) (Invitrogen, Paisley, UK) with GlutaMAX^TM and 10% fetal bovine serum (GE Healthcare) (DMEM/FBS) and passaged when confluent.
# as §2
# 5-HT3A receptor Y441A = molecular target: T3, 5-HT3A receptor Y441A (Mus musculus, UniProt P23979, Y468A); experiment: Two-electrode voltage clamp, 5-HT response, Y441A receptor in Xenopus oocytes; design: expressed in transfected cells; host or cells: Xenopus laevis oocytes (cRNA injection); settings: mean and SEM, n ≥ 3
# T3 sequence (P23979 24-489 Y468A): T1 sequence (P23979 24-489 D265A) with A242D, Y445A
# Method: as §1
# Xenopus laevis oocytes from EcoCyte Biosciences (Austin Texas) were injected with 100 pg cRNA (generated with the ThermoFisher mMESSAGE mMACHINE T7 transcription kit) and left in injection media [88 mM NaCl, 2.4 mM NaHCO3, 1 mM KCl, 0.82 mM MgSO4 ·7H20, 5 mM Tris-HCl, 0.33 mM Ca(NO3)2·4H2O, 0.41 mM CaCl2·2H2O, 2.51 mM sodium pyruvate, 0.12 mg/ml theophylline, 0.05 mg/ml gentamicin, pH 7.5] at 16 °C for 24 h. […] The holding potential was −60 mV, using glass microelectrodes with a resistance of approximately 1 MΩ backfilled with 3M KCl.
smiles,measurement,setting,value
NCCc1c[nH]c2ccc(O)cc12 [5-HT],pEC50,5-HT3A receptor D238A,NF
same,response to application of 5-HT,5-HT3A receptor D238A,Neither Y441A nor D238A responded
same,nH,5-HT3A receptor K255A,2.6± 0.1
same,nH,5-HT3A receptor Y441A,1.0 ± 0.1
